Results on one compound are retold here after patent US20250313635A1, “ANTI-INTEGRIN ANTIBODIES AND USES THEREOF” (Merck Sharp & Dohme LLC, priority 2022, published 2025).

Where two headings read alike, the source gives them in different places.

The target in one series is T1, hαvβ3 (Homo sapiens, UniProt P05106+P06756).
T1 construct: The full extracellular domains for all α and β integrin subunits; (GGGS)3 linker (C); acidic coiled-coil with cysteine (C); GG-Avitag (C); hexa-histidine tag (C); basic coiled-coil with cysteine (C); made in house; host or cells: Expi293 cells
The series can be described thus: Human AlphaLISA integrin-ligand blocking assay (vitronectin). The format is biochemical. The procedure:
(§1) Integrin AlphaLISA assay. In the AlphaLISA integrin assays, we used a HEPES based buffer (25 mM HEPES pH 7.4, 137 mM NaCl, 1 mM MgCl2, 1 mM MnCl2, 2 mM CaCl2, 2.7 mM KCl, and 0.05% Tween 20). Optimal assay conditions were determined with a titration of the reagents for signal noise ratio (S/N), linear range, etc. For the respective integrins, we used the final concentrations described in Table 9.
(§2) Briefly, the testing antibody (8 μL) was added as a 4×(of Final testing concentration) solution in the HEPES buffer described previously into a 384w AlphaPlate™ (Perkin Elmer #6005350). Then the integrin and ligand were added sequentially as 8×(4 μL each). Plates were sealed and incubated at room temperature for two hours. Then 4×acceptor bead solution ([…]) was added, and the plates were resealed and incubated at room temperature (RT) for one hour. Finally, 4×([…]) donor beads solution was added in a darkened room and incubated for 45 minutes at room temperature. Plates were read on the Envision (Perkin Elmer) in AlphaScreen™ mode within three hours of donor bead addition.
A general note: Alpha assays give light when donor and acceptor beads are brought close together.

Another series deals with T2, hαvβ5 (Homo sapiens, UniProt P06756+P18084).
T2 construct: The full extracellular domains for all α and β integrin subunits; (GGGS)3 linker (C); acidic coiled-coil with cysteine (C); GG-Avitag (C); hexa-histidine tag (C); basic coiled-coil with cysteine (C); made in house; host or cells: Expi293 cells
The description is as above. The format is biochemical. The procedure: as §1, §2

The target of a further series is T3, mαvβ6 (Mus musculus, UniProt P43406+Q9Z0T9).
T3 construct: The full extracellular domains for all α and β integrin subunits; (GGGS)3 linker (C); acidic coiled-coil with cysteine (C); GG-Avitag (C); hexa-histidine tag (C); basic coiled-coil with cysteine (C); made in house; host or cells: Expi293 cells
Nature of the series: Mouse AlphaLISA integrin-ligand blocking assay (LAP). The conditions noted are these: Table 12; read-out: IC50 Mouse integrin AlphaLISA assays mαvβ6. It counts as biochemical. How it is done: as §1, §2

The target of a further series is T4, mαvβ8 (Mus musculus, UniProt P43406+Q0VBD0).
T4 construct: The full extracellular domains for all α and β integrin subunits; (GGGS)3 linker (C); acidic coiled-coil with cysteine (C); GG-Avitag (C); hexa-histidine tag (C); basic coiled-coil with cysteine (C); made in house; host or cells: Expi293 cells
Described as above. It counts as biochemical. The conditions noted are these: Table 12; read-out: IC50 Mouse integrin AlphaLISA assays mαvβ8. The procedure: as §1, §2

For the next series, the system named is CHOK1 parental cells. Nature of the series: Cell adhesion assay, CHOK1 parental cells on fibronectin. It counts as cell-based, hamster. To be noted: FIG. 11.
Another series concerns the target T5, mouse αvβ5 (Mus musculus, UniProt O70309+P43406).
T5 construct: expressed in transfected cells
Nature of the series: Cell adhesion assay, CHOK1-mαvβ5 cells on vitronectin. The format is cell-based. To be noted: FIG. 11. How it is done:
Cell adhesion assay. For plate preparation, Epic 384-well assay plates (Corning #5040) were washed with OptiMEM™ (Gibco #31985-070) and coated with murine fibronectin (Abcam #ab92784) at a concentration of 0.1 μg/well for CHO-α5KO-mαvβ1 cells; murine vitronectin (Abcam #ab92727) at 0.075 μg/well for CHO-mαvβ3 cells; or murine vitronectin at 0.125 μg/well for CHO-mαvβ5 (all at a volume of 25 μL/well in OptiMEM™), for one hour. Coating solution was then removed by flicking and plates were washed with OptiMEM™ and blocked with 25 μL/well of assay buffer (1% Ovalbumin (Sigma #A5503-10G) in OptiMEM™ containing 1×Pen-Strep (Gibco #15140-148)). A 5-minute baseline reading was taken on a Corning Epica Plate Reader (Model: Epic BT-157900) before removing the assay buffer and adding cells pre-incubated with inhibitors. The Epic™ plate reader detects cellular mass redistribution (adhesion) on the plate surface as a picometer wavelength shift over time. For inhibitor titration preparation: fivefold serial dilutions of small molecule inhibitor MK-0429 or antibody inhibitor Ab-31 were prepared in assay buffer at 4× the final concentration in a 384-well polypropylene plate in a volume of 15 μL per well, starting at a concentration of 800 nM. […]

The test system of series [1] is Normal human lung fibroblasts. The series can be described thus: αSMA imaging, TGFβ-induced αSMA expression. The format is cell-based. The conditions noted are these: TGFβ 5 ng/mL, pre-treated 30 minutes, MK-0429 (10 µM) or SB-525334 (10 μM), 48 hours. The procedure: (§3) αSMA imaging. Primary cells (passage 3-5) were grown on Cell carrier Ultra, collagen Type 1 coated 96-well plates (Perkin Elmer, #6055700) at a density of 25,000 cells/well. Once the cells adhere, they were starved in serum free media for 24 hours followed by addition of treatments, i.e., 5 ng/mL TGFβ (Biolegend #580702)±inhibitors. Cells were pre-treated with inhibitors for 30 minutes prior to the addition of TGFβ stimulation. 48 hours post treatment, the cells were fixed in 4% methanol free paraformaldehyde (ThermoFisher Scientific #28908) for 20 minutes at room temperature and incubated with anti-alpha smooth muscle Actin antibody (Abcam #ab7817) at 1:4000 overnight at 4° C. Following primary antibody incubation, cells were incubated with Goat anti-mouse secondary antibody (ThermoFisher Scientific #A32723) at 1:500 and Hoechst (ThermoFisher Scientific #62249) at 1:1000 for one hour at RT. The fixed and stained cells were images for immunofluorescence on Perkin Elmer's Opera Phenix high content Imager.

Series [2] relates to IPF patient lung fibroblasts. Nature of the series: αSMA imaging, TGFβ-induced αSMA expression. It counts as cell-based, human. Also noted: inhibiting αSMA induction: dose or concentration left out as unconfirmed. The procedure: as §3
The conditions of series [3]: osteoporosis patients, 52 weeks; cited from earlier work.

T1 sequence (P06756 31-992 limits assumed): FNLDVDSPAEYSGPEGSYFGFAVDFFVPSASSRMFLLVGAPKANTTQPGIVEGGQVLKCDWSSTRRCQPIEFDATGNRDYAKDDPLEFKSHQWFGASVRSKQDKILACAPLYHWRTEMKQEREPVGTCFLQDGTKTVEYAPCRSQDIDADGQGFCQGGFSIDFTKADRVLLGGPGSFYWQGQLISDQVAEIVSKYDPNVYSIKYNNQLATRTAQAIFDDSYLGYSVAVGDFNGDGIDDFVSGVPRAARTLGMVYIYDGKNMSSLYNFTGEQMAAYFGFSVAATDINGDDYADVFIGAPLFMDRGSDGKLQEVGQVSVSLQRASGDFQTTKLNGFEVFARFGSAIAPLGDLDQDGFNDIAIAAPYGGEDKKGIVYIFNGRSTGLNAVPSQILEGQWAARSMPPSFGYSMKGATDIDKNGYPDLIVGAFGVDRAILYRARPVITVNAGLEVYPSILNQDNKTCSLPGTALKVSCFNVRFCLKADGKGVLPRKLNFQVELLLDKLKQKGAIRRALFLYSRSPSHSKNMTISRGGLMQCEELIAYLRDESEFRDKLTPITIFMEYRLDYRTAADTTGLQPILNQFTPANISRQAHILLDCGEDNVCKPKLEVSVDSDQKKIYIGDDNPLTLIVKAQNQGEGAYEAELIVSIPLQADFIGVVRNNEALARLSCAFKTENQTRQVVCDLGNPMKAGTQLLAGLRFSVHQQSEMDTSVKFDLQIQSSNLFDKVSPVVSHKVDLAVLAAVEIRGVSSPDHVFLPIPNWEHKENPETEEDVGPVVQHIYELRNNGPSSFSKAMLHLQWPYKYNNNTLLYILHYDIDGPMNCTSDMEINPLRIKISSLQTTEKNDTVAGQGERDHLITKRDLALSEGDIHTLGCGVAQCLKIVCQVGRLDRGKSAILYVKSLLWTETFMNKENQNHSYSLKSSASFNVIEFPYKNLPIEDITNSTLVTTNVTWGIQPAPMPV
T1 sequence (P05106 27-718 limits assumed): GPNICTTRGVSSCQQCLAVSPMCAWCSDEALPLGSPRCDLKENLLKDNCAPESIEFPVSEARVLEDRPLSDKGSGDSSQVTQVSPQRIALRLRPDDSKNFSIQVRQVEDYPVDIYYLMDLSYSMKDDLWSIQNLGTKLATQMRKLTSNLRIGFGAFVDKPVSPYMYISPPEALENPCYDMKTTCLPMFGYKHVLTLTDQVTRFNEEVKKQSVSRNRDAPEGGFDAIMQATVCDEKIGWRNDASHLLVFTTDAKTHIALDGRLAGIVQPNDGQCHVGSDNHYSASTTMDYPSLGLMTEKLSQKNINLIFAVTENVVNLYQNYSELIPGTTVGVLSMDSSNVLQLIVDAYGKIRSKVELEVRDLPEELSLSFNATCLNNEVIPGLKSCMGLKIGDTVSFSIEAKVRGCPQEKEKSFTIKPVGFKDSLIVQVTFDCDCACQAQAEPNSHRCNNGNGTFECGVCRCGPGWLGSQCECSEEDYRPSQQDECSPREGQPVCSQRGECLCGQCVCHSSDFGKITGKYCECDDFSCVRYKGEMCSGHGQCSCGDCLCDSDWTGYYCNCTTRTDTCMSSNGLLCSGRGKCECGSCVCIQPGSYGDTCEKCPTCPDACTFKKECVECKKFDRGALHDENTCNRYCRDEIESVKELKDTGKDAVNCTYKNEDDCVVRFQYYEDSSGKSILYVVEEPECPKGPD
T2 sequence (P06756 31-992 limits assumed): as the sequence (P06756 31-992 limits assumed) above
T2 sequence (P18084 24-719 limits assumed): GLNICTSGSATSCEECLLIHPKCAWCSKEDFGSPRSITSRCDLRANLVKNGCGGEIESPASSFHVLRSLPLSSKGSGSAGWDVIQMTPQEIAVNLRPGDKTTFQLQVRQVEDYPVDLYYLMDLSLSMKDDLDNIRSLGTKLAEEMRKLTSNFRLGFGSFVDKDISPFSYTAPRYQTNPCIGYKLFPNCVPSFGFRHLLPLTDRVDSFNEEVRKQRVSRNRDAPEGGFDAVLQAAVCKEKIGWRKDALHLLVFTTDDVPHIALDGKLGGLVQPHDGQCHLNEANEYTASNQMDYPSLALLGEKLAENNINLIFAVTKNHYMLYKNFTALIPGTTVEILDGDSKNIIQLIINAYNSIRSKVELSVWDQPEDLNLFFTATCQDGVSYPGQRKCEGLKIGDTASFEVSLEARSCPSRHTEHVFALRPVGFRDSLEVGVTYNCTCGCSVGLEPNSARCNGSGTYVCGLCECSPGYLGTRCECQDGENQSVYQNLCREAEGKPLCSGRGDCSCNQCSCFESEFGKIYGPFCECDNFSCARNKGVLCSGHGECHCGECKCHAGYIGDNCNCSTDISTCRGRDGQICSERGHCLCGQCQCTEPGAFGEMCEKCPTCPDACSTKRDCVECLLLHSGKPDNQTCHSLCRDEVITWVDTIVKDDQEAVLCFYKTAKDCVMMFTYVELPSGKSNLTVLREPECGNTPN
T5 sequence (P43406 31-1044): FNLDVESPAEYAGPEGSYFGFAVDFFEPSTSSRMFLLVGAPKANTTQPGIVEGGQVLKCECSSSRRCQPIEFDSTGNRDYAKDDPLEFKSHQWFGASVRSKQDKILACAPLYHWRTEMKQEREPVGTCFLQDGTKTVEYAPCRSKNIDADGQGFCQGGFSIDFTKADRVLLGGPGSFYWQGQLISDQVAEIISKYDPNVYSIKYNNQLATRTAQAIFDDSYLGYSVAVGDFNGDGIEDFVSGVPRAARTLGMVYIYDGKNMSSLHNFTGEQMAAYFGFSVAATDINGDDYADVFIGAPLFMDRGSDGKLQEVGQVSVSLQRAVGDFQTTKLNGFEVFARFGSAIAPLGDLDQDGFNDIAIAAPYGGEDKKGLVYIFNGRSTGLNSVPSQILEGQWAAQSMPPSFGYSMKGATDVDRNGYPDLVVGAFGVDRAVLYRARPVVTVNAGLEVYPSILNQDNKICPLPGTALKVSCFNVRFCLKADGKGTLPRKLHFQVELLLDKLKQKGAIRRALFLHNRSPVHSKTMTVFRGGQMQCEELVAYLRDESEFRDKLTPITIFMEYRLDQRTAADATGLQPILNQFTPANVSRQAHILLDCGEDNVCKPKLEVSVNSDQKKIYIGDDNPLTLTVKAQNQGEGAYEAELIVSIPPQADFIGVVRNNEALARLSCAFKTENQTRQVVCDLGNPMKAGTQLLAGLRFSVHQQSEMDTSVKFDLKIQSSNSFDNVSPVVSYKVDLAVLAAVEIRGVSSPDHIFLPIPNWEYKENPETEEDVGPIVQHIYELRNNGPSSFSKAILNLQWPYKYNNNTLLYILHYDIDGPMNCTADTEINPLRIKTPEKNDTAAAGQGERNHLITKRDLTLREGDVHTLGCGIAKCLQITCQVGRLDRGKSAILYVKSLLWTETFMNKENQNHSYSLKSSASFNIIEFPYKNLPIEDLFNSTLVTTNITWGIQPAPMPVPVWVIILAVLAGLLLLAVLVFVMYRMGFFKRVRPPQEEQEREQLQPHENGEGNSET
T5 sequence (O70309 24-798): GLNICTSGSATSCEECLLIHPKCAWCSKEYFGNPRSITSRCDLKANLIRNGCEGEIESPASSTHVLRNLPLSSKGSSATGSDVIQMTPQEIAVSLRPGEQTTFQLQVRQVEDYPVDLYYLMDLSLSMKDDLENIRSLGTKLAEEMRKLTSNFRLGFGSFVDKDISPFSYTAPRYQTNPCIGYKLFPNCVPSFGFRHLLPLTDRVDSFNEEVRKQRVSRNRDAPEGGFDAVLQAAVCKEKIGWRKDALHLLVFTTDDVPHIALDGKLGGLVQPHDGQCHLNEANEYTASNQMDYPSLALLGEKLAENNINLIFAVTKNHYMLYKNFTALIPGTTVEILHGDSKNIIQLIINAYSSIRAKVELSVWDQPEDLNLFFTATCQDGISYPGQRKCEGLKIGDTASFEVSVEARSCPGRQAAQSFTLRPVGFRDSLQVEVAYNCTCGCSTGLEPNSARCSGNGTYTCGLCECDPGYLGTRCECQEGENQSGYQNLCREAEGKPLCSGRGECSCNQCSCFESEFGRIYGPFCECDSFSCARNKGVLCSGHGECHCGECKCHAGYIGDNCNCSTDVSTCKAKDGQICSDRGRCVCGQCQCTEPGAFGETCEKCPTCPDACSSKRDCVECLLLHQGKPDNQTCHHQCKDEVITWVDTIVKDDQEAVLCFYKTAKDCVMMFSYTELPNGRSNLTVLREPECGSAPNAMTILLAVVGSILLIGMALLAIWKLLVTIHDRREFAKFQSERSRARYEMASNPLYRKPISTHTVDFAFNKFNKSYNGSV

A word on the IC50: it is the concentration that inhibits the measured activity by half. For `COc1ccc([C@H](CC(=O)O)N2CCN(CCCc3ccc4c(n3)NCCC4)C2=O)cn1` [MK-0429, (3S)-3-(6-methoxypyridin-3-yl)-3-[2-oxo-3-[3-(5,6,7,8-tetrahydro-1,8-naphthyridin-2-yl)propyl]imidazolidin-1-yl]propanoic acid], the IC50 on hαvβ3 (FIG. 3D, curve-fitted, read-out: IC50 against human αvβ3, AlphaLISA) turned out to be 0.15 nM; on hαvβ3 (Table 11, read-out: IC50 Human integrin AlphaLISA assays hαvβ3), 1.6 nM; at hαvβ5 (FIG. 3D, curve-fitted, read-out: IC50 against human αvβ5, AlphaLISA), 9.9 nM; on hαvβ5 (Table 11, read-out: IC50 Human integrin AlphaLISA assays hαvβ5), 2.9 nM; on mαvβ6, 0.4 nM; at mαvβ8, 5.3 nM. The “inhibition of adhesion of CHOK1 parental cells on fibronectin” value with CHOK1 parental cells is reported as “little inhibitory activity”. Further, the “cell adhesion of mouse αvβ5 on a vitronectin matrix” value on mouse αvβ5 was “decreased”. Also, the “αSMA intensity and the percentage of stimulated cells following TGFβ treatment” value in [1] is reported as “significantly reduced”. Besides, in series [2], the “inhibiting αSMA induction” value is “minimal activity”. The safety profile result in [3] was “relatively well-tolerated safety profile”.
